Key:
[1] = system: HT29, HCT116 or other cells; test: WST assay: enhancement of cell killing by DNA damaging agents; type: cell-based; conditions: shift of 1 = no shift
Description: HT29, HCT116 (5000 cells/well) or other cells were seeded (75 ul) to 96 well clear bottom plates at densities which provide linear growth curves for 72 hours. Cells were cultured under sterile conditions in appropriate media and for HT29 & HCT116 this media was McCoy's 5A containing 10% Fetal Bovine Serum (FBS). Following the initial seeding of cells they are incubated at 37° C., 5% CO2 from 17 to 24 hours at which time the appropriate DNA damaging agents (camptothecins, 5-fluorouracil and etoposid) are added at increasing concentrations to a point which is capable of causing at least 80% cell killing with in 48 hours. Final volume of all DNA damaging agent & compound additions was 25 ul and assays contained <1% DMSO final. At the same time as DNA Damaging agent addition, Chk1 inhibitor was added at fixed concentrations to each DNA damaging agent titration to observe enhancement of cell killing. In addition, toxicity of each Chk1 inhibitor alone was observed. By doing this over a range of Chk1 inhibitor concentrations we were able to identify compounds which maximally enhance (2–30 fold) cell killing by each DNA damaging agent and generated ≦80% cell killing by the compound alone. Cell viability/cell killing under the conditions described above was determined by addition WST reagent (Roche) according to the manufacturer at 47 hours following DNA damage & Chk1 inhibitor addition and following a 3.5 hour or 2.5 hour incubation at 37 C, 5% CO2, OD450 was measured.

[2] = biological target: T1, GST-Chk1 (recombinant human Chk1) (Homo sapiens, UniProt O14757); test: Chk1 FlashPlate kinase assay; type: biochemical; conditions: 1 uM ATP
T1 construct: made in house; host or cells: insect cells (Bac-to-Bac baculovirus system)
T1 sequence (O14757 1-476): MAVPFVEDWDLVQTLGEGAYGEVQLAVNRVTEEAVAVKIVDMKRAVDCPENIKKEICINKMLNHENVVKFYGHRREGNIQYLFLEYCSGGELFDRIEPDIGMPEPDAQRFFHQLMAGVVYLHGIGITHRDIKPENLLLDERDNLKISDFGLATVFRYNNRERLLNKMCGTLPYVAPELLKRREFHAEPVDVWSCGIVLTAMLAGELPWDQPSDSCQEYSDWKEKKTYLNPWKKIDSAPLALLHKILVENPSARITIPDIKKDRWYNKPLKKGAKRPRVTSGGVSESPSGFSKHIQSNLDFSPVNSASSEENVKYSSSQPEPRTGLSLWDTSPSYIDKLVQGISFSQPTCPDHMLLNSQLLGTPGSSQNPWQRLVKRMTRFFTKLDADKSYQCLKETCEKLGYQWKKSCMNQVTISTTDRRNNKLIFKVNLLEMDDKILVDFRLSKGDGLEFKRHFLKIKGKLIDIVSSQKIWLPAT
Description: Recombinant human Chk1 was expressed as a fusion protein with glutathione S-transferase at the amino-terminus (GST-Chk1) using standard baculovirus vectors and (Bac-to-Bac®) insect cell expression system purchased from GIBCO™ Invitrogen. Recombinant protein expressed in insect cells was purified using glutathione sepharose (Amersham Biotech) using standard procedures described by the manufacturer.
Chk1 FlashPlate® Kinase Assay:
Reactions were incubated for 30 minutes at room temperature, terminated with 50 ul of 50 mM EDTA and 90 ul were transferred to streptavidin-coated FlashPlates® (NEN) and incubated for 1 hour at room temperature. Plates were washed with phosphate buffered salaine containing 0.01% Tween-20 and 10 mM sodium pyrophosphate. Plates were dried, sealed with Topseal™ (NEN) and amount of ^33P incorporated into the peptide substate measure using a Packard Topcount® NXT™ scintillation counter with standard settings.
Compounds of the present invention were tested in the Chk1 FlashPlate® kinase assay described above.

[3] = biological target: T2, CHK-1 (Homo sapiens, UniProt O14757); test: IC50 for the test compound versus CHK-1 (Table 2, assay format not stated); type: biochemical
T2 sequence (O14757 1-476): T1 sequence (O14757 1-476)

IC50 [2]: < 100 nM | IC50 [3]: 8 nM
SMILES: CN(C)CCOc1ccc(Cl)cc1NC(=O)Nc1cnccn1 [Example 2, 1-[5-Chloro-2-(2-dimethylamino-ethoxy)-phenyl]-3-pyrazin-2-yl-urea]
Shift 156 nM ([1]; Chk1 inhibitor fixed at 156 nM with DNA damaging agent titration): 1 | Shift 313 nM ([1]; Chk1 inhibitor fixed at 313 nM with DNA damaging agent titration): 1.1 | Shift 625 nM ([1]; Chk1 inhibitor fixed at 625 nM with DNA damaging agent titration): 1.5 | Shift 1.25 μM ([1]; Chk1 inhibitor fixed at 1.25 μM with DNA damaging agent titration): 1.9 | Shift 2.5 μM ([1]; Chk1 inhibitor fixed at 2.5 μM with DNA damaging agent titration): 2.6
